PubChem BioAssay AID270 (DTP/NCI, 2004)
Results filed as inconclusive are left out.

Test system: BDF1 mice, s.c. Lewis lung carcinoma, T/C %
Assay: NCI In Vivo Anticancer Drug Screen. Data for tumor model Lewis Lung Carcinoma (subcutaneous) in B6D2F1 (BDF1) mice
Outline: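 First, mice carry a transplantable tumor. Next, groups receive either compound or vehicle. Finally, survival or tumor dimensions in the dosed animals are divided by the corresponding control figure.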

[1] = endpoint: mean tumor weight, dose: 750.0 mg/kg/injection, schedule: Q01DX011 (ip), vehicle: other, higher = larger tumour
[2] = endpoint: mean tumor weight, dose: 1000.0 mg/kg/injection, schedule: Q01DX011 (ip), vehicle: other, higher = larger tumour

Compound: c1ccc(N/N=C2/CCN3CCCc4cccc2c43)cc1
- T/C (endpoint: median survival time, dose: 12.5 mg/kg/injection, schedule: Q04DX003 (ip), vehicle: DMSO, higher = longer survival): 105 % of control
- T/C (endpoint: median survival time, dose: 25.0 mg/kg/injection, schedule: Q04DX003 (ip), vehicle: DMSO, higher = longer survival): 87 % of control
- T/C (endpoint: median survival time, dose: 50.0 mg/kg/injection, schedule: Q04DX003 (ip), vehicle: DMSO, higher = longer survival): 109 % of control

Compound: c1ccc(C2=C(c3ccccc3)C(c3ccccc3)=C(c3ccccc3)C2)cc1
- T/C (endpoint: mean tumor weight, dose: 118.0 mg/kg/injection, schedule: Q01DX011 (ip), vehicle: other, higher = larger tumour): 89 % of control
- T/C (endpoint: mean tumor weight, dose: 178.0 mg/kg/injection, schedule: Q01DX011 (ip), vehicle: other, higher = larger tumour): 65 % of control
- T/C (endpoint: mean tumor weight, dose: 250.0 mg/kg/injection, schedule: Q01DX011 (ip), vehicle: other, higher = larger tumour): 92 % of control
- T/C (endpoint: mean tumor weight, dose: 266.0 mg/kg/injection, schedule: Q01DX011 (ip), vehicle: other, higher = larger tumour): 84 % of control
- T/C (endpoint: mean tumor weight, dose: 400.0 mg/kg/injection, schedule: Q01DX011 (ip), vehicle: other, higher = larger tumour): 109 % of control
- T/C [1]: 124 % of control
- T/C [2]: 60 % of control

Compound: CC1CCCC(NC(=O)N(CCCl)N=O)C1 (configuration not stated)
- T/C (endpoint: median survival time, dose: 20.0 mg/kg/injection, schedule: Q01DX001 (ip), vehicle: gum acacia, higher = longer survival): 110 % of control
- T/C (endpoint: median survival time, dose: 30.0 mg/kg/injection, schedule: Q01DX001 (ip), vehicle: gum acacia, higher = longer survival): 110 % of control
- T/C (endpoint: median survival time, dose: 43.0 mg/kg/injection, schedule: Q01DX001 (ip), vehicle: gum acacia, higher = longer survival): 92 % of control
- T/C (endpoint: median survival time, dose: 64.0 mg/kg/injection, schedule: Q01DX001 (ip), vehicle: gum acacia, higher = longer survival): 90 % of control
- T/C (endpoint: median survival time, dose: 96.0 mg/kg/injection, schedule: Q01DX001 (ip), vehicle: gum acacia, higher = longer survival): 155 % of control

Compound: O=C1C2CCCCC2C(=O)N1c1nccs1 (configuration not stated)
- T/C (endpoint: mean tumor weight, dose: 50.0 mg/kg/injection, schedule: Q01DX011 (ip), vehicle: carboxymethylcellulose (CMC), higher = larger tumour): 58 % of control
- T/C (endpoint: mean tumor weight, dose: 100.0 mg/kg/injection, schedule: Q01DX011 (ip), vehicle: carboxymethylcellulose (CMC), higher = larger tumour): 71 % of control
- T/C (endpoint: mean tumor weight, dose: 200.0 mg/kg/injection, schedule: Q01DX011 (ip), vehicle: carboxymethylcellulose (CMC), higher = larger tumour): 84 % of control

Compound: CS(=O)(=O)OCC(O)C(O)COS(C)(=O)=O (configuration not stated)
- T/C (endpoint: mean tumor weight, dose: 125.0 mg/kg/injection, schedule: Q01DX011 (ip), vehicle: saline, higher = larger tumour): 87 % of control
- T/C (endpoint: mean tumor weight, dose: 250.0 mg/kg/injection, schedule: Q01DX011 (ip), vehicle: saline, higher = larger tumour): 77 % of control
- T/C (endpoint: mean tumor weight, dose: 500.0 mg/kg/injection, schedule: Q01DX011 (ip), vehicle: other, higher = larger tumour): 75 % of control
- T/C (endpoint: mean tumor weight, dose: 500.0 mg/kg/injection, schedule: Q01DX011 (ip), vehicle: saline, higher = larger tumour): 59 % of control
- T/C [1]: 93 % of control
- T/C [2]: 55 % of control

Compound: IP(c1ccccc1)(c1ccccc1)(c1ccccc1)N1C2CCCCC21 (configuration not stated)
- T/C (endpoint: median survival time, dose: 0.3 mg/kg/injection, schedule: Q01DX009 (ip), vehicle: Klucel (hydroxypropylcellulose) (HPC), higher = longer survival): 94 % of control
- T/C (endpoint: median survival time, dose: 0.6 mg/kg/injection, schedule: Q01DX009 (ip), vehicle: Klucel (hydroxypropylcellulose) (HPC), higher = longer survival): 103 % of control
- T/C (endpoint: median survival time, dose: 38.0 micrograms/kg/injection, schedule: Q01DX009 (ip), vehicle: Klucel (hydroxypropylcellulose) (HPC), higher = longer survival): 94 % of control
- T/C (endpoint: median survival time, dose: 75.0 micrograms/kg/injection, schedule: Q01DX009 (ip), vehicle: Klucel (hydroxypropylcellulose) (HPC), higher = longer survival): 91 % of control
- T/C (endpoint: median survival time, dose: 150.0 micrograms/kg/injection, schedule: Q01DX009 (ip), vehicle: Klucel (hydroxypropylcellulose) (HPC), higher = longer survival): 104 % of control
- T/C (endpoint: median survival time, dose: 300.0 micrograms/kg/injection, schedule: Q01DX009 (ip), vehicle: Klucel (hydroxypropylcellulose) (HPC), higher = longer survival): 91 % of control

Compound: CCSC(=O)N1c2ccc(OC)cc2C=CC1C#N (configuration not stated)
- T/C (endpoint: median survival time, dose: 100.0 mg/kg/injection, schedule: Q01DX009 (ip), vehicle: saline with Tween-80, higher = longer survival): 122 % of control
- T/C (endpoint: median survival time, dose: 200.0 mg/kg/injection, schedule: Q01DX009 (ip), vehicle: saline with Tween-80, higher = longer survival): 102 % of control
- T/C (endpoint: median survival time, dose: 400.0 mg/kg/injection, schedule: Q01DX009 (ip), vehicle: saline with Tween-80, higher = longer survival): 108 % of control

Compound: Cc1cc(O)c(C(C)C)cc1S(=O)(=O)O (tested in a mixture with another compound)
- T/C (endpoint: mean tumor weight, dose: 25.0 mg/kg/injection, schedule: Q01DX011 (ip), vehicle: other, higher = larger tumour): 95 % of control
- T/C (endpoint: mean tumor weight, dose: 50.0 mg/kg/injection, schedule: Q01DX011 (ip), vehicle: other, higher = larger tumour): 105 % of control
- T/C (endpoint: mean tumor weight, dose: 100.0 mg/kg/injection, schedule: Q01DX011 (ip), vehicle: other, higher = larger tumour): 114 % of control
- T/C (endpoint: mean tumor weight, dose: 200.0 mg/kg/injection, schedule: Q01DX011 (ip), vehicle: other, higher = larger tumour): 98 % of control
